The text below walks through data of patent US20230227466A1, “SUBSTITUTED THIENOPYRIMIDINES THAT INTERACT WITH THE RAS SUPERFAMILY FOR THE TREATMENT OF CANCERS, INFLAMMATORY DISEASES, RASOPATHIES, AND FIBROTIC DISEASE” (SHY Therapeutics, LLC, priority 2020, published 2023).

Read-outs that look alike come from different tables or passages of the source.

Experiment [1] deals with ERK1/2 phosphorylation in Panc-1 cells. The experiment in a line: Western ERK1/2 cell-based phosphorylation assay. Details: species or system human. Particulars: at 10 μM, values in brackets < > are activation %, not inhibition. A digest of the protocol:
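Panc-1 cells starved overnight in 0.5% FBS, then exposed 6 h at 37 °C to compound at 10 μM final (0.3% DMSO) or serial dilutions for IC50. Stimulation with 1.5 ng/ml EGF for 15 min; phospho-ERK1/2 (Thr202/Tyr204) read by western blot on equal protein loads.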

Another experiment has as its target T1, KRas Q61H mutant (Homo sapiens, UniProt P01116, Q61H).
T1 construct: made in house
Nature of the experiment: Ras GTP binding domain inhibition assay (labeled-GTP competition, cell-free). A digest of the protocol:
(§1)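 Labeled-GTP competition read out as bound Cy3/Cy5-GTP fluorescence after washes, with 100 nM tracer for 45 min at RT. Before tracer, compounds at 20 μM, or a dilution series for IC50, sat 3 h at RT on the Ni-immobilized His-tagged GTPase. Sos GEF (10-30 μg/mL) was optionally present for the last hour.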

Another experiment addresses T2, KRas G12D mutant (Homo sapiens, UniProt P01116, G12D).
T2 construct: made in house
The description is as above. A digest of the protocol:
as §1

A further experiment addresses T3, KRas G12C mutant (Homo sapiens, UniProt P01116, G12C).
T3 construct: made in house
The description is as above. In outline:
as §1

For a further experiment, the target named is Rho-A (Homo sapiens, UniProt P61586). The experiment is described as above. Details: made in house. A digest of the protocol:
as §1

In the next experiment the target is KRas wild type (Homo sapiens, UniProt P01116). The description is as above. On the set-up: made in house. In outline: as §1
Another experiment has as its target Rac-1 (Homo sapiens, UniProt P63000). The description is as above. On the set-up: made in house. A digest of the protocol: as §1
Setting [2] is: with SOS, read-out: KRas Q61H mutant + SOS: % inh.
[3] abbreviates: without SOS, read-out: KRas Q61H mutant: % inh.
The mark [4] stands for this setting: with SOS, read-out: KRas G12D mutant + SOS: % inh.
Setting [5] is: without SOS, read-out: KRas G12D mutant: % inh.
The mark [6] stands for this setting: with SOS, read-out: KRas G12C mutant + SOS: % inh.
[7] abbreviates: without SOS, read-out: KRas G12C mutant: % inh.
[8] abbreviates: with SOS, read-out: Rho-A + SOS: % inh.
[9] abbreviates: without SOS, read-out: Rho-A: % inh.
[10] abbreviates: with SOS, read-out: KRas wild type + SOS: % inh.
The mark [11] stands for this setting: without SOS, read-out: KRas wild type: % inh.
Setting [12] is: with SOS, read-out: Rac-1 + SOS: % inh.
The mark [13] stands for this setting: without SOS, read-out: Rac-1: % inh.

Consider `CO[C@H]1CC(Nc2nc(-c3nccn3C)nc3sc(-c4ccn(C(C)C)n4)c(C)c23)C[C@@H]1OC` (racemic) [Compound 44, rac-N-((3S,4S)-3,4-Dimethoxycyclopentyl)-6-(1-isopropyl-1H-pyrazol-3-yl)-5-methyl-2-(1-methyl-1H-imidazol-2-yl)thieno[2,3-d]pyrimidin-4-amine], for which, in experiment [1], the “% inh of ERK1/2 phosphorylation in PANC-1” value (“% inh” below) is reported as “D (76-100% inhibition)”. The inhibition at 20 µM on KRas Q61H mutant (setting [2]) lay within 76 to 100%; at KRas Q61H mutant (setting [3]) it was 76 to 100%; at KRas G12D mutant (setting [4]) it was 76 to 100%; on KRas G12D mutant (setting [5]) it was 51 to 75%; at KRas G12C mutant (setting [6]) it was 76 to 100%; at KRas G12C mutant (setting [7]), 76 to 100%. Moreover, the inhibition at 20 µM on Rho-A (setting [8]), on Rho-A (setting [9]), on KRas wild type (setting [10]), on KRas wild type (setting [11]), at Rac-1 (setting [12]) and on Rac-1 (setting [13]) was 76 to 100% throughout.

Take `Cc1c(-c2ccn(C(C)C)n2)sc2nc(-c3nccn3C)nc(NCCc3ncc[nH]3)c12` [Compound 53, N-(2-(1H-Imidazol-2-yl)ethyl)-6-(1-isopropyl-1H-pyrazol-3-yl)-5-methyl-2-(1-methyl-1H-imidazol-2-yl)thieno[2,3-d]pyrimidin-4-amine]: the “% inh” value in experiment [1] is on record as 0 (0% inhibition). Further, the inhibition at 20 µM was in the range of 26 to 50% on KRas Q61H mutant (setting [2]); 26 to 50% on KRas Q61H mutant (setting [3]); 26 to 50% at KRas G12D mutant (setting [4]); 1 to 25% at KRas G12D mutant (setting [5]); 26 to 50% on KRas G12C mutant (setting [6]); 26 to 50% on KRas G12C mutant (setting [7]). Also, the inhibition at 20 µM on Rho-A (setting [9]) was 76 to 100%; on KRas wild type (setting [10]) it was 51 to 75%; on KRas wild type (setting [11]), 26 to 50%; on Rac-1 (setting [13]) it was 1 to 25%.

One may read the IC50 as the concentration at which inhibition is half-maximal. On to `CO[C@H]1CC[C@@H](Nc2nc(C(=O)NC(C)C)nc3sccc23)C1` (racemic) [Compound 13, Rac-N-isopropyl-4-(((1R,3S)-3-methoxycyclopentyl)amino)thieno[2,3-d]pyrimidine-2-carboxamide], for which the “% inh” value in experiment [1] is 0 (0% inhibition). The inhibition at 20 µM on KRas Q61H mutant (setting [2]) was 0%; on KRas Q61H mutant (setting [3]), 0%; on KRas G12D mutant (setting [4]), 0%; at KRas G12D mutant (setting [5]) it was 1 to 25%; on KRas G12C mutant (setting [6]), 0%; on KRas G12C mutant (setting [7]), 0%. The inhibition at 20 µM at Rho-A (setting [8]) is 1 to 25%; at Rho-A (setting [9]), 1 to 25%; on KRas wild type (setting [10]), 1 to 25%; on KRas wild type (setting [11]) it was 0%; on Rac-1 (setting [12]), 0%; at Rac-1 (setting [13]), 1 to 25%. Also, the IC50 on KRas Q61H mutant (with SOS) is more than 10 µM.

For the compound `COC[C@@H]1CC[C@@H]1CNc1nc(-c2nccn2C)nc2sc(-c3ccn(C(C)C)n3)c(C)c12` (racemic) [Compound 63, rac-6-(1-Isopropyl-1H-pyrazol-3-y)-N-(((1S,2R)-2-(methoxymethyl)cyclobutyl)methyl)-5-methyl-2-(1-methyl-1H-imidazol-2-yl)thieno[2,3-d]pyrimidin-4-amine], the “% inh” value in experiment [1] is reported as “D (76-100% inhibition)”. Also, the inhibition at 20 µM at KRas Q61H mutant (setting [2]) is 26 to 50%; on KRas Q61H mutant (setting [3]), 51 to 75%; on KRas G12D mutant (setting [4]), 51 to 75%; at KRas G12D mutant (setting [5]), 51 to 75%; at KRas G12C mutant (setting [6]), 26 to 50%; at KRas G12C mutant (setting [7]) it was 26 to 50%. The inhibition at 20 µM on Rho-A (setting [9]) was in the range of 51 to 75%; at KRas wild type (setting [10]), 26 to 50%; at KRas wild type (setting [11]) it was 51 to 75%; at Rac-1 (setting [13]), 26 to 50%.
